Results: PubChem BioAssay AID2696 (Johns Hopkins Ion Channel Center, 2010)

target: Short transient receptor potential channel 6 (Mus musculus) (UniProt Q61143); test: TRPC6 inhibitor potency, dose response, cell-based, mouse TRPC6, HEK293, membrane potential (AID 2696); conditions: TRPC6-expressing HEK293 cells, membrane potential dye fluorescence, acetylcholine-stimulated
Sequence (Q61143 whole entry, looked up): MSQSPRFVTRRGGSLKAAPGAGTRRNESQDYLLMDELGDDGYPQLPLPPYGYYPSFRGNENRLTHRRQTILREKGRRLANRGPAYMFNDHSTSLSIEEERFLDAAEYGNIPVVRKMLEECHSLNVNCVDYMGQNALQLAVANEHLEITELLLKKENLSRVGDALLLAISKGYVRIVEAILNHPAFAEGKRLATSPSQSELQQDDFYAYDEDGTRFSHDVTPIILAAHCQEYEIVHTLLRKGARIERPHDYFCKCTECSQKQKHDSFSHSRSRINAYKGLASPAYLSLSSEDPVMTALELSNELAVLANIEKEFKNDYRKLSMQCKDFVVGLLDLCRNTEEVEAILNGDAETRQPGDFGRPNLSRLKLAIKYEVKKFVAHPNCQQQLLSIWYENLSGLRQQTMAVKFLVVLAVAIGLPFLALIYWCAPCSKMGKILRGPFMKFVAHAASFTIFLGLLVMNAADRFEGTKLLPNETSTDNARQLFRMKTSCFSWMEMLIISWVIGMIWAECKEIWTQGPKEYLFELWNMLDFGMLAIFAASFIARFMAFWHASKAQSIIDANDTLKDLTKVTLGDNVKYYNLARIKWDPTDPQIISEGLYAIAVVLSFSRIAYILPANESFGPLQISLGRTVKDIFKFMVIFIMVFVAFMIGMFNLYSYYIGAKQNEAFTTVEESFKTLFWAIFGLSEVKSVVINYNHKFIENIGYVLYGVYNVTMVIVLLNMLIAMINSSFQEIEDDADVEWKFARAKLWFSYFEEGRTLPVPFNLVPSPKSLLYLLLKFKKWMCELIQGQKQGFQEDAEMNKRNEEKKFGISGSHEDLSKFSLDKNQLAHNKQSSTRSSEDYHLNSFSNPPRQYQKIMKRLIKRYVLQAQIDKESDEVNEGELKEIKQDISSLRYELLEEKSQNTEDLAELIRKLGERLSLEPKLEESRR

First: O=C(c1ccc2c(=O)n3c(nc2c1)CCCCC3)N1CCN(C(c2ccccc2)c2ccccc2)CC1
Second: O=C(c1ccc(C(=O)N2CCCc3ccccc32)s1)N1CCCc2ccccc21
The IC50 of the first is 2.2-fold lower: 19.9 µM for the first, 44.7 µM for the second. The first is the more potent here.

Going from `CCN(CC)CCNc1nc2cc(OC)c(OC)cc2c2nc(-c3ccccc3)nn12` to `CCN(CC)CCSc1nnc2c3ccccc3n(Cc3ccccc3)c2n1`, the IC50 falls from 79.4 µM to 44.7 µM (1.8-fold).

Compared with `Cc1cc(-n2cccn2)ccc1CN1CCN(C2CCCC2)C(CCO)C1` (centres undefined), `CC1CCN(Cc2ccc(NC(=O)CC3Oc4ccccc4NC3=O)cc2)CC1` (centres undefined) is 4.5-fold higher in IC50: 0.5 µM for the first, 2.24 µM for the second. The first is the more potent here.

Compared with `CCOC(=O)c1cnc2c(Cl)cccc2c1NCCN(C)C`, `Cc1c(C(=O)OC(C)CCN(C)C)oc2ccccc12` (centres undefined) is 4.5-fold lower in IC50: 63.1 µM for the first, 14.1 µM for the second. The second is the more potent here.

Going from `CCN(CC)CCNC(=O)c1nn(-c2ccc(C)cc2)c(=O)c2c1c1ccccc1n2C` to `Cc1ccc(S(=O)(=O)n2c(N)nc3ccccc32)cc1`, the IC50 falls from 79.4 µM to 17.8 µM (4.5-fold). The second is the more potent here.

`CC(C)CC1CCCCC1OC(=O)C[N+]1(C)CCCCC1` (centres undefined) and `C[N+]1(CCOC(=O)C2(c3ccccc3)CCCC2)CCCCC1` are the same in IC50: 15.8 µM for the first, 15.8 µM for the second.

First: CN(C)C/C=C/C(O)(c1ccccc1)c1ccccc1
Second: CCCc1ncc(C(O)(c2ccccc2)c2ccccc2)n1C
The IC50 of the first is 4-fold lower: 10 µM for the first, 39.8 µM for the second. The first is the more potent here.

Compared with `c1ccc(CNc2c3ccccc3nc3ccccc23)cc1`, `OC(Cn1c2ccccc2c2ccccc21)C[n+]1cccc2ccccc21` (centres undefined) is 2-fold lower in IC50: 70.8 µM for the first, 35.5 µM for the second.

`CCCCCOC(=O)c1ccc(NC(=O)c2ccco2)cc1` and `CCOC(=O)c1ccc(NC(=O)CCc2ccc(CC)o2)cc1` are within 1.5-fold of each other in IC50: 70.8 µM for the first, 79.4 µM for the second.

First: CCN1C(=O)/C(=C\N2CCCCCC2)SC1=S
Second: CC(C)C(O)(C#CCN1CCCCCC1)c1ccccc1 (centres undefined)
The IC50 of the first is 3.2-fold lower: 14.1 µM for the first, 44.7 µM for the second.

Compared with `CN1CCCC(C#CC(O)(c2ccccc2)c2ccccc2)C1` (centres undefined), `OC(C#CCN1CCCC1)(c1ccccc1)c1ccccc1` is 4-fold lower in IC50: 15.8 µM for the first, 3.98 µM for the second.

`Fc1ccc2[nH]c3c(c2c1)CN(C(=S)NCc1ccccc1)CC3` and `CCOC(=O)c1[nH]c2ccc(F)cc2c1NC(=O)CN1CCN(C/C=C/c2ccccc2)CC1` are the same in IC50: 31.6 µM for the first, 31.6 µM for the second.

`O=C1c2ccccc2-c2onc3c(N4CCN(CCO)CC4)cc(N4CCN(C(=O)c5ccco5)CC4)c1c23` and `O=C1Nc2ccccc2OC1CC(=O)N1CCN(c2cccc(C(F)(F)F)c2)CC1` (centres undefined) are the same in IC50: 79.4 µM for the first, 79.4 µM for the second.

Compared with `CN(C)CCOc1nc(-c2ccccc2)nc2c1oc1ccccc12`, `CSCc1cc(N(C)c2ccccc2)nc(-c2ccccn2)n1` is 2.5-fold lower in IC50: 70.8 µM for the first, 28.2 µM for the second. The second is the more potent here.

First: C[N+]12CCC(CC1)C(OC(=O)C(O)(c1ccccc1)c1ccccc1)C2 (centres undefined)
Second: C[N+]1(C)CCC(OC(=O)C(c2ccccc2)c2ccccc2)CC1
The IC50 of the first is 7-fold lower: 0.04 µM for the first, 0.28 µM for the second. The first is the more potent here.

Going from `CCN(CC)c1ccc2cc(C(N)=O)/c(=N\NC(=O)c3ccncc3)oc2c1` to `CCN(CC)CC(=O)Nc1ccc(-c2nc3cc(NC(=O)CN(CC)CC)ccc3o2)cc1`, the IC50 rises from 50.1 µM to 79.4 µM (1.6-fold). The first is the more potent here.

First: CN(C)CCNc1c2c(c(C#N)c3nc4ccccc4n13)CCCC2
Second: N#Cc1c(N2CCNCC2)nc(-c2ccco2)c2c1CCCC2
The IC50 of the first is 1.8-fold higher: 79.4 µM for the first, 44.7 µM for the second.

Going from `Cc1cc(C)n(-c2nc(NCCCN(C)C)c3c4c(sc3n2)COC(C)(C)C4)n1` to `Cc1cccc2sc(N(CCCN(C)C)C(=O)c3ccc(Cl)s3)nc12`, the IC50 rises from 14.1 µM to 70.8 µM (5-fold).

First: CCN(CC)CCC/C(=N\O)C(O)(c1ccccc1)c1ccccc1
Second: OC(CCN1CCCCC1)(c1ccccc1)c1ccccc1
The IC50 of the first is 2.8-fold higher: 7.94 µM for the first, 2.82 µM for the second. The second is the more potent here.

`O=[N+]([O-])c1cc([N+](=O)[O-])c2c(=Nc3ccccc3)n(-c3ccccc3)n(O)c2c1` and `O=[N+]([O-])c1cccc(OCCCN2CCC(Cc3ccccc3)CC2)c1` are the same in IC50: 50.1 µM for the first, 50.1 µM for the second.

`CC[N+]1(C)CCC(=C2c3ccccc3CC(=O)c3sccc32)CC1` (centres undefined) and `Oc1ccc(CN2CCc3ccccc3C2)c2cccnc12` are within 1.5-fold of each other in IC50: 12.6 µM for the first, 15.8 µM for the second.

`Nc1nc(N2CCN(C/C=C/c3ccccc3)CC2)nc2ccccc12` and `Nc1cccc2nc3ccccc3cc12` are within 1.5-fold of each other in IC50: 44.7 µM for the first, 50.1 µM for the second.

`COc1cc(-c2nc3ccc(C)cn3c2Nc2ccc3c(c2)OCCO3)ccc1O` and `CN(C)CCN(C(=O)c1cccs1)c1nc2cc3c(cc2s1)OCCO3` are within 1.5-fold of each other in IC50: 44.7 µM for the first, 39.8 µM for the second.

`NCCCC(=O)N1c2ccccc2Sc2ccccc21` and `CN(C)CCCN1c2ccccc2Sc2ccc(C(F)(F)F)cc21` are within 1.5-fold of each other in IC50: 44.7 µM for the first, 50.1 µM for the second.

`Cc1onc(-c2c(F)cccc2Cl)c1C(=O)NC(=S)Nc1c(C)n(C)n(-c2ccccc2)c1=O` and `C/C(=N/OC(=O)c1c(-c2c(Cl)cccc2Cl)noc1C)c1cnccn1` are within 1.5-fold of each other in IC50: 39.8 µM for the first, 31.6 µM for the second.

Going from `CC[N+](CC)(CC)CCCOC(=O)C(O)(c1ccccc1)C1CCCCC1` (centres undefined) to `CC[N+](C)(CC)CCOC(=O)C(O)(c1ccccc1)C1CCCCC1` (centres undefined), the IC50 rises from 0.06 µM to 0.79 µM (13-fold). The first is the more potent here.

Going from `COCC(C)NC(=O)c1ccc(CN2CCc3ccccc3C2)cc1` (centres undefined) to `Cc1ccc(S(=O)(=O)NNC(=O)C2CCN(Cc3ccccc3)CC2)cc1`, the IC50 falls from 44.7 µM to 2.82 µM (16-fold). The second is the more potent here.

`C[n+]1ccc(/C=N/Nc2nc(Cl)c(C#N)c(Cl)c2Cl)cc1` and `COc1ccc(Cl)cc1Nc1nc(N)c2ccccc2n1` are within 1.5-fold of each other in IC50: 39.8 µM for the first, 31.6 µM for the second.

Compared with `Oc1ccccc1Nc1nc(NCC2CCCO2)c2ccccc2n1` (centres undefined), `Cc1ccc(C)c(Nc2nc(N)c3ccccc3n2)c1` is 2.5-fold lower in IC50: 50.1 µM for the first, 19.9 µM for the second.

First: Clc1ccc(C(c2ccccc2)N2CCNCC2)cc1 (centres undefined)
Second: CN1C2CCC1CC(OC(c1ccccc1)c1ccccc1)C2 (centres undefined)
The IC50 of the first is 160-fold higher: 50.1 µM for the first, 0.32 µM for the second. The second is the more potent here.

Going from `CC(Cc1ccccc1Sc1ccc(O)cc1)N(C)C` (centres undefined) to `Cc1ccc(C(=O)OCCc2sc[n+](Cc3ccccc3)c2C)cc1`, the IC50 falls from 31.6 µM to 17.8 µM (1.8-fold). The second is the more potent here.

First: Cc1ccc(C2N(c3ccccc3)C(=S)N3CCCN23)cc1 (centres undefined)
Second: COc1ccc(N2C(=O)CSC23C(=O)N2CCCc4cccc3c42)cc1 (centres undefined)
The IC50 of the first is 22-fold higher: 25.1 µM for the first, 1.12 µM for the second. The second is the more potent here.

`Cc1cc(N2CCN(C)CC2)ccc1NC(=O)c1ccc(-c2ccc(Cl)cc2)o1` and `N=c1sccn1CC(=O)Nc1cc(Cl)ccc1Oc1ccccc1` are the same in IC50: 44.7 µM for the first, 44.7 µM for the second.

`Cc1cccc(CCNCc2cc3cccc(C)c3[nH]c2=O)c1` and `Cc1cccn2c(=O)c3cc(C(=O)NC(C)C)c(=N)n(Cc4ccncc4)c3nc12` are within 1.5-fold of each other in IC50: 50.1 µM for the first, 70.8 µM for the second.

First: COc1ccc(C2NC(=O)NC(O)(C(F)(F)F)C2C(=O)c2ccc(C)cc2)cc1 (centres undefined)
Second: COC(=O)C(NC(=O)c1ccc(C)cc1)(Nc1cccc(C)n1)C(F)(F)F (centres undefined)
The IC50 of the first is 3.6-fold lower: 14.1 µM for the first, 50.1 µM for the second.

Compared with `O=c1cc(C(F)(F)F)[nH]c2c(C(F)(F)F)cccc12`, `CCOc1cccc(=NC2CCCCC2)c2c(C)n(C)c(C)c12` is 2-fold higher in IC50: 25.1 µM for the first, 50.1 µM for the second. The first is the more potent here.

Compared with `CC(/C=N/n1c(-c2n[nH]c3c2CCC3)n[nH]c1=S)=C\c1ccco1`, `N#Cc1c(-n2cccc2/C=N/O)sc2c1CCCC2` is 4.5-fold higher in IC50: 8.91 µM for the first, 39.8 µM for the second. The first is the more potent here.

First: C[C@H]1OC[C@@H](C[N+](C)(C)C)O1
Second: Cc1cc(C)c2nc(N3CCC(C(=O)NCCCN4CCCCC4)CC3)sc2c1
The IC50 of the first is 8.9-fold lower: 4.47 µM for the first, 39.8 µM for the second. The first is the more potent here.

`O=C1c2cccc3cccc(c23)C(=O)N1CC1CCN(CC(O)COCc2ccc3c(c2)OCO3)CC1` (centres undefined) and `N=c1c(C(=O)NCCN2CCOCC2)cc2c(=O)n3ccccc3nc2n1CCc1ccccc1` are the same in IC50: 50.1 µM for the first, 50.1 µM for the second.

`COC(=O)c1ccc(NC(=O)c2snnc2-c2ccccc2)cc1` and `COc1ccccc1Nc1nc(N)nc(CSC(=S)N2CCCCC2C)n1` (centres undefined) are within 1.5-fold of each other in IC50: 39.8 µM for the first, 44.7 µM for the second.

Compared with `Cc1ccc(Sc2c([N+](=O)[O-])c(C)nn2C)cc1`, `CCCCn1c(-c2ccc([N+](=O)[O-])cc2)n[nH]c1=S` is 5.6-fold lower in IC50: 35.5 µM for the first, 6.31 µM for the second.

Going from `C#CC[N+]1(C)[C@@H]2CC(OC(=O)C(CO)c3ccccc3)C[C@H]1C(O)C2` (some centres undefined) to `O=C(OCCN1CCCC1)C1(c2ccccc2)CCCC1`, the IC50 rises from 3.55 µM to 15.8 µM (4.5-fold). The first is the more potent here.
